Data set [1] deals with rat model of cerebral infarction. As to conditions: administered before the event; cited from earlier work.
In data set [2] the test system is rats. In words: 3-acetylpyridine (3-AP) neurotoxicity model in rats. The class given is in vivo, rat.
Where [3] appears, read: sumanirole 1-20 mg/kg PO, given before or after 3-AP, sacrifice 96 hours later, dose-related.

One may read the melting point as the temperature, or range, at which the solid turns liquid. Take `CN[C@@H]1Cc2cccc3[nH]c(=S)n(c23)C1`: the melting point lay in the range of 210 to 213 °C.

`CN[C@@H]1Cc2cccc3[nH]c(=S)n(c23)C1.O=C(O)CC(O)C(=O)O` came in with a melting point of 195 to 196 °C.

With `CCN(CC)C(=O)N[C@H]1C=C2c3cccc4[nH]cc(c34)C[C@H]2N(C)C1` [Lisuride], in data set [1], the brain edema result was “reduced” and the survival time entry was “prolonged”.

For `CN[C@@H]1Cc2cccc3[nH]c(=O)n(c23)C1.O=C(O)/C=C\C(=O)O` [Sumanirole, (5R)-5-(methylamino)-5,6-dihydro-4H-imidazo[4,5,1-ij]quinolin-2(1H)-one (Z)-2-butenedioate (1:1)], the “neuroprotective effects of sumanirole after pretreatment with raclopride” value in data set [2] (pretreatment with raclopride) is given as “did not block”. Moreover, in data set [2] (sumanirole 1-20 mg/kg PO, given before or after 3-AP, dose-related), the “3-AP induced reduction in rotorod performance” value is listed as “significantly attenuated”. Also, in data set [2] (setting [3]), the “3-AP induced reduction in cerebellar ATP” value is “significantly attenuated” and the “3-AP induced reduction in cerebellar cGMP” value was “significantly attenuated”. Also, in data set [2] (sumanirole 1-20 mg/kg PO, neuronal cell counts 96 hours later), the “inferior olive neuronal cell loss produced by 3-AP” value is on record as “significantly reduced”.

Source of the values: patent US20040142937A1, “Use of heterocyclic amine-type compounds as neuroprotective agents” (priority 2002, published 2004).
